Converted amounts (≈) assume the structure as drawn.
Assay: Toxicity against brine shrimp
Assay type: organism-based
Settings: artemia, in vivo

Question: With C=C1C(=O)O[C@H]2[C@H]1CC[C@@]1(C)[C@@H](O)C=C[C@@]3(C)O[C@]231 [RATIBINOLIDE II] as the compound, how does the LC50 read?
Answer: Its LC50 is 69.5 µg/mL (≈ 265 µM).
